The numbers were not newly measured in patent publication US20150125548A1, “COMBINATION NUTRITIONAL AND NUTRACEUTICAL PRODUCTS” (Requis Pharmaceuticals Inc., priority 2011, published 2015), which cites them from elsewhere.

One series addresses tryptophan hydroxylase (Mus musculus, UniProt Q8CGV2). Conditions: 10 mM magnesium chloride added together with 1 mM ATP; 100,000 g supernatant from mouse midbrain.
For series [1] the following is noted: after absorption.

The structures appear in SMILES notation.

tryptophan hydroxylase, sequence (Q8CGV2 whole entry): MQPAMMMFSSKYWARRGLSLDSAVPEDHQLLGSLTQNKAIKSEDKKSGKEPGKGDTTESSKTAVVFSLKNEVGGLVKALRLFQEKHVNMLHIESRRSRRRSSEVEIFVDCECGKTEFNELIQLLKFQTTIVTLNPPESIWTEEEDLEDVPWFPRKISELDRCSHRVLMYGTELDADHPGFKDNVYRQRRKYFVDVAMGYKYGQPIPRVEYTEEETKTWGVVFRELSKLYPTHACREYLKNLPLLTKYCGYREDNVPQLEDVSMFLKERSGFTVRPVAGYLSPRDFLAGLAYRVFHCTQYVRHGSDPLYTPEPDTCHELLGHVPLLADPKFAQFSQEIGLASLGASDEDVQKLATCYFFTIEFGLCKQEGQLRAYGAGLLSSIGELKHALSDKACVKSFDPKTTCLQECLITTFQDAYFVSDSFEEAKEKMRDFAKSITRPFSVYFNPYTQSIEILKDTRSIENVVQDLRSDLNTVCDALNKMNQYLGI

With `[Cl-].[Cl-].[Mg+2]` [magnesium chloride], the “increase of enzyme activity above control” value on tryptophan hydroxylase is 50-70%. Consider `N[C@@H](Cc1c[nH]c2ccccc12)C(=O)O` [tryptophan, (2S)-2-amino-3-(1H-indol-3-yl)propanoic acid], for which the “fraction present in blood as the free amino acid (rest bound to plasma proteins)” value in series [1] is on record as “around 20%”.
